Results as given in PMC4376724, “Differential Phenotypic and Functional Profiles of TcCA-2 -Specific Cytotoxic CD8^+ T Cells in the Asymptomatic versus Cardiac Phase in Chagasic Patients” (PLoS ONE, 2015).

Test system: PBMC from HLA-A*02:01 Chagas disease patients and healthy donors
Assay: Cytokine secretion test (Bio-Plex multiplex immunoassay) in PBMC supernatants
Assay type: cell-based, human
Conditions: 1 μM peptide, 30 h; for IFNγ / IL6 / TNFα: non-peptide control subtracted
Procedure: For the screening of the recognition of TcCA-2 epitopes by Chagas disease patients, 10 HLA-A*02:01 adult patients in the asymptomatic phase of the disease (IND) were enrolled. For cytotoxicity, functional activity determinations and phenotypic characterization another group of 19 HLA-A*02:01 adults Chagas disease patients and 9 healthy donors were analyzed. These patients were at the chronic stage of the disease and were considered to be at the asymptomatic phase (IND, n = 8) if there was no evidence of having cardiac or gastrointestinal disorders. Chronic Chagas cardiomyopathy patients (CCC, n = 11) were stratified into G1 to G3 stages following Kuschnir classification according to clinical criteria and radiological, electrocardiographic and echocardiography analyses. The number of patients was the one recommended by the Hospital Ethical Committee. […] The patients were enrolled in both studies (functional and phenotypic characterization, IND n = 6 and CCC n = 7) when the available number of purified PBMC (limited by the cellular number isolated from each subject) was enough for both analyses. Another four CCC patients had to be enrolled to perform the phenotypic analysis in order to reach statistical significance.
Cytokine secretion (IL-4, IL-10, IL-6, IFN-γ, TNF-α) was determined in the supernatants of PBMC from Chagas disease patients and healthy donors, after in vitro stimulation with 1 μM of each peptide for 30 h at 37°C in RPMI supplemented with 10% iFBS as explained before. The secretion profile was determined by using a bead-based multiplex immunoassay system (Bio-Plex, Bio-Rad), following the manufacturer's instructions. The response was considered positive if an increase in the secretion of cytokines was at least three folds higher than the secretion by un-stimulated cells (basal secretion level) and at least, 4 pg/mL for IL-4, 2 pg/mL for IL-10, 15 pg/mL for IL-6 and 5 pg/mL for IFN-γ and TNF-α. The positive control consisted of 50 ng/mL Phorbol 12 myristate 13-acetate (PMA) and 500 ng/mL ionomycin (Sigma). Cytokine levels were quantified in each sample by using the Bio-Plex Manager software 4.1 (Bio-Rad).
Functional analysis of the epitope-specific CD8^+ T cells was carried out by the determination of the secretion profile of IFN-γ, TNF-α, IL-4, IL10 and IL-6 cytokines. […] CD8^+ T cells from 2 out of 11 patients responded to stimulation with peptide TcCA-2_273-281 by secreting IL-6. […] There was no secretion of IL-4 and IL-10 in PBMC after stimulation with any one of the four TcCA-2 peptides (data not shown). IFN-γ, TNF-α and IL6 cytokines secretion levels were higher in patients at the asymptomatic phase of the disease than in Chagas patients with associated cardiomyopathy.

For AAAGDKLSL [TcCA-2_273-281], the “Patients whose cells responded by secreting IL-6” value (PBMC of Chagas patients, same positivity criteria) was 2 out of 11, the IFNγ (PBMC of patient CCC I 456) was 0 pg/mL and the IL6 (PBMC of patient CCC I 456) was 0 pg/mL. The TNFα (PBMC of patient CCC I 456) was 0 pg/mL, the IFNγ (PBMC of patient CCC I 770) was 0 pg/mL and the IL6 (PBMC of patient CCC I 770) was 22 pg/mL. It also gave a TNFα (PBMC of patient CCC I 770) of 4 pg/mL, an IFNγ (PBMC of patient CCC I 861) of 2 pg/mL and an IL6 (PBMC of patient CCC I 861) of -4 pg/mL. It also gave a TNFα (PBMC of patient CCC I 861) of -2 pg/mL, an IFNγ (PBMC of patient CCC I 884) of 0 pg/mL and an IL6 (PBMC of patient CCC I 884) of 0 pg/mL. It also gave a TNFα (PBMC of patient CCC I 884) of 0 pg/mL, an IFNγ (PBMC of patient CCC III 509) of 0 pg/mL and an IL6 (PBMC of patient CCC III 509) of -4 pg/mL. The TNFα (PBMC of patient CCC III 509) was -5 pg/mL, the IFNγ (PBMC of patient IND 365) was 1 pg/mL and the IL6 (PBMC of patient IND 365) was 43 pg/mL. For the same sequence, the TNFα (PBMC of patient IND 365) was -6 pg/mL, the IFNγ (PBMC of patient IND 388) was 2 pg/mL and the IL6 (PBMC of patient IND 388) was 36 pg/mL. The TNFα (PBMC of patient IND 388) was 7 pg/mL, the IFNγ (PBMC of patient IND 510) was 0 pg/mL and the IL6 (PBMC of patient IND 510) was 1 pg/mL. For the same sequence, the TNFα (PBMC of patient IND 510) was -1 pg/mL, the IFNγ (PBMC of patient IND 535) was 0 pg/mL and the IL6 (PBMC of patient IND 535) was -5 pg/mL. The TNFα (PBMC of patient IND 535) was -1 pg/mL, the IFNγ (PBMC of patient IND 571) was 0 pg/mL and the IL6 (PBMC of patient IND 571) was 0 pg/mL. For the same sequence, the TNFα (PBMC of patient IND 571) was 0 pg/mL, the IFNγ (PBMC of patient IND 917) was 7 pg/mL and the IL6 (PBMC of patient IND 917) was 18 pg/mL. It also gave a TNFα (PBMC of patient IND 917) of 11 pg/mL, an IFNγ (PBMC of subject HD 001) of 6 pg/mL and an IL6 (PBMC of subject HD 001) of 1 pg/mL. It also gave a TNFα (PBMC of subject HD 001) of -8 pg/mL, an IFNγ (PBMC of subject HD 004) of 0 pg/mL and an IL6 (PBMC of subject HD 004) of -9 pg/mL. It also gave a TNFα (PBMC of subject HD 004) of 0 pg/mL, an IFNγ (PBMC of subject HD 005) of -19 pg/mL and an IL6 (PBMC of subject HD 005) of -183 pg/mL. It also gave a TNFα (PBMC of subject HD 005) of -11 pg/mL, an IFNγ (PBMC of subject HD 006) of 6 pg/mL and an IL6 (PBMC of subject HD 006) of 1 pg/mL. It also gave a TNFα (PBMC of subject HD 006) of 2 pg/mL, an IFNγ (PBMC of subject HD 008) of -1 pg/mL and an IL6 (PBMC of subject HD 008) of 9 pg/mL. The TNFα (PBMC of subject HD 008) was 0 pg/mL, the IFNγ (PBMC of subject HD 011) was 0 pg/mL and the IL6 (PBMC of subject HD 011) was -11 pg/mL. It also gave a TNFα (PBMC of subject HD 011) of -8 pg/mL, an IFNγ (PBMC of subject HD 340) of 0 pg/mL and an IL6 (PBMC of subject HD 340) of 9 pg/mL. The TNFα (PBMC of subject HD 340) was 4 pg/mL, the IFNγ (PBMC of subject HD 664) was -3 pg/mL and the IL6 (PBMC of subject HD 664) was 0 pg/mL. For the same sequence, the TNFα (PBMC of subject HD 664) was 0 pg/mL.
